Source: paper PMC10215198, “Antibacterial Conjugates of Kanamycin A with Vancomycin and Eremomycin: Biological Activity and a New MS-Fragmentation Pattern of Cbz-Protected Amines” (Antibiotics, 2023)
In brackets after ≈: the same amount, converted by molar mass.

Columns and labels:
[1] = test system: Escherichia coli 25922 ATCC; assay: MIC, broth micro-dilution, Gram-negative strain; assay type: cell-based; conditions: Mueller Hinton broth, inoculum 5 × 10^5 CFU/mL, 24 h at 36 °C
Description: (§1) We performed a study of antibacterial activity of the synthesized compounds 17 on a panel of clinical isolates of the Gram-positive microorganisms S. haemolyticus 602, S. aureus 3798 (VISA), and Enterococcus faecalis 560 (Van A) and against the Gram-negative strain Escherichia coli 25922 ATCC by the MTT method (Table 1).
(§2) The in vitro study was performed according to the recommendations of the European Committee on Antimicrobial Susceptibility testing. The MIC values for Gram-positive and Gram-negative bacterial strains were determined by the broth micro-dilution method using Mueller Hinton broth (Acumedia Manufacturers Inc., Lansing, MI, USA) and the National Committee for Clinical Laboratory Standards procedures as described earlier.

S. aureus 3798 (VISA) = assay: MIC, broth micro-dilution, Gram-positive clinical isolate (VISA); assay type: cell-based, Staphylococcus aureus; conditions: Mueller Hinton broth, inoculum 5 × 10^5 CFU/mL, 24 h at 36 °C
Description: as §1, §2

[2] = test system: Enterococcus faecalis 560 (Van A); assay: MIC, broth micro-dilution, Gram-positive clinical isolate (Van A); assay type: cell-based; conditions: Mueller Hinton broth, inoculum 5 × 10^5 CFU/mL, 24 h at 36 °C
Description: as §1, §2

S. haemolyticus 602 = assay: MIC, broth micro-dilution, Gram-positive clinical isolate; assay type: cell-based, Staphylococcus haemolyticus; conditions: Mueller Hinton broth, inoculum 5 × 10^5 CFU/mL, 24 h at 36 °C
Description: as §1, §2

Gram-positive bacteria = conditions: compared with vancomycin; cited from earlier work
Source text: Another antibiotic drug of this class, eremomycin (2), was discovered at the Gause Institute of New Antibiotics. It was isolated from Amycolatopsis orientalis subsp.

Compound	MIC (Minimum Inhibitory Antibiotic Concentration), E. coli 25922 ATCC [1] [µg/mL]	MIC (Minimum Inhibitory Antibiotic Concentration), S. aureus 3798 (VISA) (S. aureus 3798 (VISA)) [µg/mL]	MIC (Minimum Inhibitory Antibiotic Concentration), E. faecalis 560 (Van A) [2] [µg/mL]	MIC (Minimum Inhibitory Antibiotic Concentration), E. coli 25922 ATCC ([1]; listed as 1) [µg/mL]	MIC (Minimum Inhibitory Antibiotic Concentration), S. haemoliticus 602 (S. haemolyticus 602) [µg/mL]	efficacy against Gram-positive bacteria relative to vancomycin (Gram-positive bacteria)	MIC (Minimum Inhibitory Antibiotic Concentration), E. coli 25922 ATCC ([1]; listed as 2) [µg/mL]
3,6′-Di-Cbz-Kanamycinyl A 1-Amide of Eremomycin [Compound 6]	>64	4	8				
CN[C@H](CC(C)C)C(=O)N[C@H]1C(=O)N[C@@H](CC(N)=O)C(=O)N[C@H]2C(=O)N[C@H]3C(=O)N[C@H](C(=O)N[C@H](C(=O)O)c4cc(O)cc(O)c4-c4cc3ccc4O)[C@H](O)c3ccc(c(Cl)c3)Oc3cc2cc(c3O[C@@H]2O[C@H](CO)[C@@H](O)[C@H](O)[C@H]2O[C@H]2C[C@](C)(N)[C@H](O)[C@H](C)O2)Oc2ccc(cc2Cl)[C@H]1O [Vancomycin (1), Vancomycin]	>64	8 (≈ 5.52 µM)	>64	> 64	1 (≈ 0.69 µM)		
Kanamycinyl A 1-Amide of Eremomycin [Compound 7]	>64	2	32		0.25		
NC1CC(NC(=O)OCc2ccccc2)C(OC2OC(CNC(=O)OCc3ccccc3)C(O)C(O)C2O)C(O)C1OC1OC(CO)C(O)C(N)C1O (centres unmarked) [Compound 4, 3,6′-Di-Benzyloxycarbonyl-Kanamycin A]	>64						
Kanamycin A [Kanamycin A (3)]	4						
CN[C@H](CC(C)C)C(=O)N[C@H]1C(=O)N[C@@H](CC(N)=O)C(=O)N[C@H]2C(=O)N[C@H]3C(=O)N[C@H](C(=O)N[C@@H](C(=O)O)c4cc(O)cc(O)c4-c4cc3ccc4O)[C@H](O[C@@H]3C[C@@](C)(N)[C@H](O)[C@@H](C)O3)c3ccc(cc3)Oc3cc2cc(c3O[C@H]2O[C@@H](CO)[C@H](O)[C@@H](O)[C@@H]2O[C@H]2C[C@](C)(N)[C@@H](O)[C@H](C)O2)Oc2ccc(cc2Cl)[C@H]1O (stereo in doubt) [Eremomycin (2), Eremomycin]	64 (≈ 41.1 µM)	16 (≈ 10.3 µM)	>64		0.25 (≈ 0.16 µM)	three to five times higher	> 64
3,6′-Di-Cbz-Kanamycinyl A 1-Amide of Vancomycin [Compound 5]	>64	2	32				
